Measurements published in patent US7435252B2, “Control of microorganisms in the sino-nasal tract” (priority 2003, dated 2008).
Entries after “also recorded” stand apart in the source; their conditions may differ.

How the values were obtained:
Staph aureus = conditions: gram positive (Staph aureus); cited from earlier work
E. Coli = conditions: gram negative (E. Coli); cited from earlier work
Candida albicans = conditions: MB 450 and 500 microgram/mL, diode laser light 664 nm, 275 J/cm fiber length, 400 mW, 687.5 seconds, immunosuppressed murine model; cited from earlier work
[1] = test system: Porphyromonas Gingivalis and Prevotella Intermedia; test: Lethal photosensitization of oral pathogens in vitro, colony count after methylene blue stain and red-filtered halogen light; assay type: cell-based
Procedure: Suitable stain dosages for providing lethal sensitization of oral pathogens are determined in vitro by the following procedure. An objective is to determine the minimum duration of light exposure and minimum agent dilution required to achieve at least a 50% reduction in bacteria counts. Experimental tests are performed on two common pathogens using a continuously working, high intensity, red filtered halogen lamp. Red light from the filtered halogen lamp is transmitted through a flexible light guide to radiate downwardly onto petri dishes containing samples of live bacteria of species Porphyromonas Gingivalis and Prevotella Intermedia using the protocols described below.
(§1) Bacteria. Prevotella Intermedia is isolated from patient sample material, identified in the laboratory using standard diagnostic test systems (Remel Inc., Lenexa, Kans., USA) and is maintained by twice-weekly subculture in thioglycollate medium (Becton Dickinson and Co, Sparks, Md., USA). P. gingivalis ATCC 33277 obtained from Remel Inc., is maintained by a twice-weekly subculture on CDC anaerobe blood agar (Becton Dickinson and Co, USA) and in thioglycollate medium (Becton Dickinson and Co, USA).
(§2) Light Source. The source for light energy is a continuously working, high intensity halogen lamp having a built-in 250-Watt quartz halogen light source, model 1-250 supplied by Medithon, New York, N.Y., USA. Such lights are customarily employed for ear, nose or throat procedures. The light is transmitted through a flexible light guide and filtered to maintain maximum energy output at wavelengths in the vicinity of about 650 nm using a broadband red filter (Edmund Optics Inc., Barrington, N.J., USA). The light output power density measured at 3 cm distance from the end of the light guide with filter is about 50 milliwatts/cm2.
Photosensitizer. […] Serial dilutions with water of initial solution with respective concentrations of 0.1%, 0.075%, 0.05%, 0.025% and 0.01% are prepared from the initial solution using sterile 10-ml bottles of normal saline and sterile syringes.
Lethal photosensitization of P. Intermedia. Petri dishes containing CDC anaerobe blood agar (Becton Dickinson and Co, USA) are inoculated with 0.5 ml of broth containing 5×10^5 CFU/ml and left closed at room temperature for about 10 minutes to let the broth penetrate the agar media. […] Only plates with concentrations of 0.01%, and 0.025% are used in the experiment with 20 min light exposure. Four plates are used for each experiment. […] The controls are covered to protect them from ambient light. […] A total of 108 subcultures is used for the experiment. Plates are incubated in anaerobic conditions in the jars using anaerobic pack kits (BBL GasPak Plus, Becton Dickinson and Co, Sparks, Md., USA) at 37° C. for 24 hours. Samples of the resulting culture growth are taken from each plate with sterile […] standard loop, dispensed in 1 ml of sterile NS and placed at the same media. Cultures are incubated at anaerobic conditions at 37° C. for another 24 hours, and after that the resulting colony count is performed on each plate.
Lethal photosensitization of P. Gingivalis. Serial dilutions of the P. gingivalis culture are prepared from the initial culture preserved on plates using 1:L sterile standard loop (Becton Dickinson and Co, USA) and sterile NS. AVitek calorimeter (Hach Company, Loveland, Colo., USA) is used to achieve a final concentration of about 5×10^3 CFU/ml from an initial 0.5 standard McFarland suspension of 10^8 CFU/ml. Plates containing CDC anaerobic blood agar (Becton Dickinson and Co, USA) are inoculated with the resulting suspension using sterile 10:L standard loops (Becton Dickinson and Co, USA). […] Plates are also incubated at 37° C. in the tightly closed jars supplied with anaerobic pack kits (BBL GasPak Plus, Becton Dickinson and Co, USA) for 24 hours, and the resulting colony count is performed on each plate.
Statistical analyses can be carried out using single-factor analysis of variance.

[2] = test system: Porphyromonas Gingivalis and Prevotella Intermedia; test: as above; assay type: cell-based; conditions: methylene blue 0.001% or 0.025%, without halogen light
P. gingivalis ATCC 33277 = test: Lethal photosensitization of P. Gingivalis, colony count; assay type: cell-based, Porphyromonas Gingivalis
Excerpt: as §1, §2
Photosensitizer. […] Serial dilutions with water of initial solution with respective concentrations of 0.1%, 0.075%, 0.05%, 0.025% and 0.01% are prepared from the initial solution using sterile 10-ml bottles of normal saline and sterile syringes. […]

Compound	phototoxicity (Staph aureus)	phototoxicity (E. Coli)	eradication of Candida albicans (Candida albicans)	Reduction of bacteria ([1]; 0.05% methylene blue alone, without exposure to light)	difference between exposure for 10 and 20 minutes ([1]; either species, any concentration of methylene blue)	reduction in bacteria counts ([1]; light exposure 1 min, methylene blue 0.05% and higher)	reduction in bacteria counts ([1]; light exposure 5 min, methylene blue 0.025%)	bactericidal effect ([1]; methylene blue 0.01% or higher with red-filtered high-intensity light, exposure less than 10 minutes, accumulated energy 30 J/cm^2)	killing with duration of light exposure ([1]; methylene blue 0.025%, time intervals 5 and 10 min, both cultures)	killing with duration of light exposure ([1]; methylene blue 0.05%, time intervals 1 min, 5 min and 10 min, both cultures)	bacterial count reduction ([1]; methylene blue 0.075% and 0.1%, light exposure 1 min, both cultures)	bactericidal effect ([1]; methylene blue 0.075% and 0.1%, without light exposure)	killing bacteria [2]	bacterial killing (P. gingivalis ATCC 33277; methylene blue 0.01%, without light exposure, P. gingivalis culture)	bactericidal effect (P. gingivalis ATCC 33277; methylene blue 0.1%, P. gingivalis)
Cc1cc2nc3ccc(N(C)C)cc3[s+]c2cc1N.[Cl-] [toluidine blue 0]	bacterial cell death	bacterial cell death													
CN(C)c1ccc2nc3ccc(=[N+](C)C)cc-3sc2c1 [methylene blue]	bacterial cell death	bacterial cell death	totally eradicate	insignificant	No statistically significant difference	Significant reduction in bacteria counts	Significant reduction in bacteria counts	bactericidal effect	statistically significant increased killing with duration	statistically significant increased killing with duration	statistically significant bacterial count reduction	significant bactericidal effect; also recorded: significantly bactericidal	nor concentrations of methylene blue of 0.001% or 0.025%, without halogen light, appeared to be effective in killing bacteria	statistically significant bacterial killing	bactericidal effect
